Source: US20220402901A1 (Bial - R&D Investments, S.A., priority 2019, published 2022)
Values after ≈ are worked out from the molar mass of the structure shown.

Assays:
[1] = target: T1, Human acid ceramidase (hACR) (Homo sapiens, UniProt Q13510); test: Acid ceramidase biochemical fluorescent assay (cell lysates overexpressing acid ceramidase, substrate Rbm14-12); conditions: 10 μg lysate protein, 1 hr preincubation at RT, pH 4.5, Rbm14-12 6.3 μM
T1 construct: expressed in transfected cells; lysates of cells overexpressing acid ceramidase
T1 sequence (Q13510 22-395): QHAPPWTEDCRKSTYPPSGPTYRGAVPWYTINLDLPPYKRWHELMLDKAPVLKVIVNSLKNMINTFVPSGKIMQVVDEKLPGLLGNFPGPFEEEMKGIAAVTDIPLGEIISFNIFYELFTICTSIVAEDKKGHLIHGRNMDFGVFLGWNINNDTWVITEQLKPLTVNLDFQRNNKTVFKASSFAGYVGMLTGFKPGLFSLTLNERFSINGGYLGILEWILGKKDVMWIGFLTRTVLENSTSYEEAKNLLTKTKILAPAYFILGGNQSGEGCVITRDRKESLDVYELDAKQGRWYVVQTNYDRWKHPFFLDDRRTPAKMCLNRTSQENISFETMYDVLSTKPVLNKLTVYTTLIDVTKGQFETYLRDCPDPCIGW
Procedure: The ability of exemplary compounds to inhibit acid ceramidase was measured.
Cell lysates overexpressing acid ceramidase were used as the enzyme source for compound potency determination in a biochemical fluorescent assay. Briefly, compounds were preincubated with 10 μg protein of cell lysates in a dose-response manner for 1 hr at RT in the assay buffer containing 25 mM NaAC and 100 mM NaCl, pH 4.5. The reaction was initiated by the addition of substrate Rbm14-12 at a final concentration of 6.3 μM. The reaction was run at RT for 1 hr before it was stopped by the addition of the stopping buffer containing 20% methanol (v/v), 1 mg/ml NaIO4, 0.1 M glycine, pH 10.6. The samples were incubated with the stopping buffer at RT for 1 hr to allow the fluorescent product to be formed. Finally the plate was read with SpectraMax i3 plate reader (Molecular Devices) at ex360 nm and em446 nm. Data were collected and used to determine the IC50 values of compounds by curve fitting to the four-parameter inhibition equation.
The symbol “A” indicates inhibition of less than 0.2 μM; the symbol “B” indicates inhibition in the range of 0.2 μM up to 1 μM; and the symbol “C” indicates inhibition of greater than 1 μM.

[2] = Compound solubility in water; format: physicochemical; conditions: read-out: Solubility in H2O

Row | SMILES | IC50 [1] [nM] | solubility [2] [µM]
1 | Cn1c(=O)oc2cc(C3CCCN(C(=O)NCCCCc4ccccc4)C3)ccc21 (stereo not drawn) [Example 12, 3-(3-Methyl-2-oxo-1,3-benzoxazol-6-yl)-N-(4-phenylbutyl)piperidine-1-carboxamide] | > 1000 | 8 (≈ 3.26 µg/mL)
2 | CN1CCC(n2c(=O)oc3cc(C4CCN(C(=O)NCCCCc5ccccc5)CC4)ccc32)CC1 [Example 6, 4-[3-(1-Methyl-4-piperidyl)-2-oxo-1,3-benzoxazol-6-yl]-N-(4-phenylbutyl)piperidine-1-carboxamide] | > 1000 | 10 (≈ 4.91 µg/mL)
3 | Cn1c(=O)oc2cc(C3CCN(C(=O)NCCc4ccccc4)C(C)(C)C3)ccc21 (stereo not drawn) [Example 25, 2,2-Dimethyl-4-(3-methyl-2-oxo-1,3-benzoxazol-6-yl)-N-(2-phenylethyl)piperidine-1-carboxamide] | < 200 | 26 (≈ 10.6 µg/mL)
4 | Cn1c(=O)oc2ccc(C3CCN(C(=O)NCCCCc4ccccc4)CC3)cc21 [Example 9, 4-(3-Methyl-2-oxo-1,3-benzoxazol-5-yl)-N-(4-phenylbutyl)piperidine-1-carboxamide] | > 1000 | 15 (≈ 6.11 µg/mL)
5 | CCCCCNC(=O)N1CCC(c2ccc3c(c2)oc(=O)n3C)CC1(C)C (stereo not drawn) [Example 28, 2,2-Dimethyl-4-(3-methyl-2-oxo-1,3-benzoxazol-6-yl)-N-pentylpiperidine-1-carboxamide] | < 200 | 1.7 (≈ 0.635 µg/mL)
6 | Cn1c(=O)oc2cc(C3CCN(C(=O)NCCCc4ccccc4)C(C)(C)C3)ccc21 (stereo not drawn) [Example 26, 2,2-Dimethyl-4-(3-methyl-2-oxo-1,3-benzoxazol-6-yl)-N-(3-phenylpropyl)piperidine-1-carboxamide] | < 200 | 5.8 (≈ 2.44 µg/mL)
7 | C[C@H]1CC(c2ccc3c(c2)oc(=O)n3C)CCN1C(=O)NCCc1ccccc1 (stereo partly drawn) [Example 21, (2S)-Methyl-4-(3-methyl-2-oxo-1,3-benzoxazol-6-yl)-N-(2-phenylethyl)piperidine-carboxamide] | 200 to 1000 | 56 (≈ 22 µg/mL)
8 | Cn1c(=O)oc2cccc(C3CCN(C(=O)NCCCCc4ccccc4)CC3)c21 [Example 10, 4-(3-Methyl-2-oxo-1,3-benzoxazol-4-yl)-N-(4-phenylbutyl)piperidine-1-carboxamide] | > 1000 | 9 (≈ 3.67 µg/mL)
9 | Cn1c(=O)oc2cc(C3CCN(C(=O)NCCCCc4ccccc4)C(C)(C)C3)ccc21 (stereo not drawn) [Example 24, 2,2-Dimethyl-4-(3-methyl-2-oxo-1,3-benzoxazol-6-yl)-N-(4-phenylbutyl)piperidine-1-carboxamide] | < 200 | 1.3 (≈ 0.566 µg/mL)
10 | C[C@H]1CC(c2ccc3c(c2)oc(=O)n3C)CCN1C(=O)NCCCCc1ccccc1 (mixture of isomers) [Example 20, (2S)-methyl-4-(3-methyl-2-oxo-1,3-benzoxazol-6-yl)-N-(4-phenylbutyl)piperidine-1-carboxamide] | < 200 | 10
11 | O=C(NCCCCc1ccccc1)N1CCC(c2ccc3[nH]c(=O)oc3c2)CC1 [Example 1, 4-(2-Oxo-3H-1,3-benzoxazol-6-yl)-N-(4-phenylbutyl)piperidine-1-carboxamide] | 200 to 1000 | 2.4 (≈ 0.944 µg/mL)
12 | Cn1c(=O)oc2cc(C3CC4CCC(C3)N4C(=O)NCCCCc3ccccc3)ccc21 (stereo not drawn) [Example 33, 3-(3-Methyl-2-oxo-1,3-benzoxazol-6-yl)-N-(4-phenylbutyl)-8-azabicyclo[3.2.1]octane-8-carboxamide] | < 200 | 3.2 (≈ 1.39 µg/mL)

More lines, now with the values ahead:

Row | IC50 [1] [nM] | solubility [2] [µM] | SMILES
13 | > 1000 | 250 (≈ 116 µg/mL) | CN(C)CCn1c(=O)oc2cc(N3CCN(C(=O)NCCCCc4ccccc4)CC3)ccc21 [Example 47, 4-[3-[2-(Dimethylamino)ethyl]-2-oxo-1,3-benzoxazol-6-yl]-N-(4-phenylbutyl)piperazine-1-carboxamide]
14 | < 200 | 14.8 (≈ 6.48 µg/mL) | Cn1c(=O)oc2cc(C3COCC(C)(C)N3C(=O)NCCCCc3ccccc3)ccc21 (stereo not drawn) [Example 42, 3,3-Dimethyl-5-(3-methyl-2-oxo-1,3-benzoxazol-6-yl)-N-(4-phenylbutyl) morpholine-4-carboxamide]
15 | > 1000 | < 1 | Cn1c(=O)oc2cc(C3CCN(C(=O)NCCCCc4ccccc4)C(=O)C3)ccc21 (stereo not drawn) [Example 35, 4-(3-Methyl-2-oxo-1,3-benzoxazol-6-yl)-2-oxo-N-(4-phenylbutyl)piperidine-1-carboxamide]
16 | > 1000 | 241 (≈ 98.4 µg/mL) | Cn1c(=O)oc2cc(C3CNCCN3C(=O)NCCCCc3ccccc3)ccc21 (stereo not drawn) [Example 39, 2-(3-Methyl-2-oxo-1,3-benzoxazol-6-yl)-N-(4-phenylbutyl)piperazine-1-carboxamide]
17 | < 200 | 6.8 (≈ 3.06 µg/mL) | Cn1c(=O)oc2cc(N3CCN(C(=O)NCCCCc4ccccc4)C(C)(C)C3=O)ccc21 [Example 64, 2,2-Dimethyl-4-(3-methyl-2-oxo-1,3-benzoxazol-6-yl)-3-oxo-N-(4-phenylbutyl)piperazine-1-carboxamide]
18 | < 200 | 0.9 (≈ 0.36 µg/mL) | Cn1c(=O)oc2cc(N3CCN(C(=O)NCCCCC4CC4)C(C)(C)C3)ccc21 [Example 52, N-(4-Cyclopropylbutyl)-2,2-dimethyl-4-(3-methyl-2-oxo-1,3-benzoxazol-6-yl)piperazine-1-carboxamide]
19 | < 200 | 69.1 (≈ 25.9 µg/mL) | CCCCCNC(=O)N1C(c2ccc3c(c2)oc(=O)n3C)COCC1(C)C (stereo not drawn) [Example 43]
20 | > 1000 | 51.4 (≈ 21.7 µg/mL) | Cn1c(=O)oc2cc(N3CCN(C(=O)NCCCCc4ccccc4)CC3=O)ccc21 [Example 63, 4-(3-Methyl-2-oxo-1,3-benzoxazol-6-yl)-3-oxo-N-(4-phenylbutyl)piperazine-1-carboxamide]
21 | > 1000 | 20.5 (≈ 7.64 µg/mL) | Cn1c(=O)oc2cc(N3CCN(C(=O)NCCC4CC4)C(C)(C)C3)ccc21 [Example 53, N-(2-Cyclopropylethyl)-2,2-dimethyl-4-(3-methyl-2-oxo-1,3-benzoxazol-6-yl)piperazine-1-carboxamide]
22 | > 1000 | 135 (≈ 57 µg/mL) | CN1CCN(C(=O)NCCCCc2ccccc2)CC1c1ccc2c(c1)oc(=O)n2C (stereo not drawn) [Example 41, 4-Methyl-3-(3-methyl-2-oxo-1,3-benzoxazol-6-yl)-N-(4-phenylbutyl)piperazine-1-carboxamide]
23 | 200 to 1000 | 6 (≈ 2.45 µg/mL) | Cn1c(=O)oc2cc(N3CCN(C(=O)NCCCCc4ccccc4)CC3)ccc21 [Example 46, 4-(3-Methyl-2-oxo-1,3-benzoxazol-6-yl)-N-(4-phenylbutyl)piperazine-1-carboxamide]
24 | 200 to 1000 | 4.3 (≈ 1.82 µg/mL) | C[C@@H]1CN(c2ccc3c(c2)oc(=O)n3C)CCN1C(=O)NCCCCc1ccccc1 [Example 48, (2R)-2-Methyl-4-(3-methyl-2-oxo-1,3-benzoxazol-6-yl)-N-(4-phenylbutyl)piperazine-1-carboxamide]
